# In patent US10130830B2, “Preservative systems comprising cationic surfactants” (Laboratorios Miret, S.A., priority 2005, dated 2018):
# Values joined by “and” are separate entries in the source; they are usually repeats but may differ in a detail not shown here. Equal values may be shown once.
# Tested on: aerobic total count
# Test: Preservative action in cooked chicken breast, aerobic total count
# Format: cell-based
# Conditions: for counts (aerobic total count): for 5 weeks
# Method: (2) Determination of Preservative Action in Chicken Breast. Process of Preparation • 1. Fresh chicken breast was diced to pieces • 2. Brine (8.70% sodium chloride and 4.35% tripolyphosphate in water) was added to the fresh chicken in an amount of 11.5 g brine per 88.5 g meat in the control preparation and 11.5 g brine and 88.4 g meat in the preparations treated with preservative. • 3. Brine and meat were mixed during 15 minutes, in the preparations treated with preservative the preservative was added after 14 minutes in an amount of 0.2 g/kg. • 4. Vacuum refrigerate tumbling was made during 30 minutes. • 5. Samples were vacuum-packed in sterile bags and they were cooked at 85° C. for 30 minutes. • 6. The cooked chicken was refrigerated at 4° C. • 7. The cooked chicken was diced in irregular shapes. • 8. Then, the nuggets were stored at 10° C. in sterile vacuum-packed bags. Analysis […] Dilutions were made in buffered peptone water. Tryptone Soya Agar was harvested with each dilution and incubated at 35° C. for 48 hours. The mean value in log cfu/g of three samples per treatment and day of analysis was calculated.
smiles,measurement,setting,value
"CCCCCCCCCCCC(=O)N[C@@H](CCCN=C(N)N)C(=O)OCC.Cl [LAE, ethyl ester of the lauramide of the arginine monohydrochloride]","aerobic total count, mean","Example 9, cooked chicken, 0.2 g/kg, day 0, mean of triplicate",2.0 log cfu/g
same,aerobic total count,"Example 9, cooked chicken, 0.2 g/kg, day 0, samples 1-3",2.0 log cfu/g
same,"aerobic total count, mean","Example 9, cooked chicken, 0.2 g/kg, day 7, mean of triplicate",2.0 log cfu/g
same,aerobic total count,"Example 9, cooked chicken, 0.2 g/kg, day 7, samples 1-3",2.0 log cfu/g
same,"aerobic total count, mean","Example 9, cooked chicken, 0.2 g/kg, day 14, mean of triplicate",2.3 log cfu/g
same,aerobic total count,"Example 9, cooked chicken, 0.2 g/kg, day 14, samples 1-3, monohydrochloride",2.0 log cfu/g and 2.5 log cfu/g and 2.3 log cfu/g
same,"aerobic total count, mean","Example 9, cooked chicken, 0.2 g/kg, day 21, mean of triplicate",2.8 log cfu/g
same,aerobic total count,"Example 9, cooked chicken, 0.2 g/kg, day 21, samples 1-3, monohydrochloride",3.0 log cfu/g and 2.8 log cfu/g and 2.6 log cfu/g
same,"aerobic total count, mean","Example 9, cooked chicken, 0.2 g/kg, day 28, mean of triplicate",3.3 log cfu/g
same,aerobic total count,"Example 9, cooked chicken, 0.2 g/kg, day 28, samples 1-3",3.1 log cfu/g
same,aerobic total count,"Example 9, cooked chicken, 0.2 g/kg, day 28, samples 1-3, monohydrochloride",3.2 log cfu/g and 3.5 log cfu/g
same,"aerobic total count, mean","Example 9, cooked chicken, 0.2 g/kg, day 35, mean of triplicate",3.6 log cfu/g
same,aerobic total count,"Example 9, cooked chicken, 0.2 g/kg, day 35, samples 1-3",3.6 log cfu/g
same,aerobic total count,"Example 9, cooked chicken, 0.2 g/kg, day 35, samples 1-3, monohydrochloride",3.8 log cfu/g and 3.3 log cfu/g
same,"aerobic total count, mean","Example 9, cooked chicken, 0.2 g/kg, day 42, mean of triplicate",4.1 log cfu/g
same,aerobic total count,"Example 9, cooked chicken, 0.2 g/kg, day 42, samples 1-3, monohydrochloride",4.0 log cfu/g and 4.3 log cfu/g and 4.1 log cfu/g
same,"aerobic total count, mean","Example 9, cooked chicken, 0.2 g/kg, day 49, mean of triplicate",5.0 log cfu/g
same,aerobic total count,"Example 9, cooked chicken, 0.2 g/kg, day 49, samples 1-3, monohydrochloride",5.1 log cfu/g and 4.7 log cfu/g and 5.2 log cfu/g
same,"aerobic total count, mean","Example 9, cooked chicken, 0.2 g/kg, day 56 (8 weeks), mean of triplicate",5.4 log cfu/g
same,aerobic total count,"Example 9, cooked chicken, 0.2 g/kg, day 56, samples 1-3, monohydrochloride",5.3 log cfu/g and 5.2 log cfu/g and 5.5 log cfu/g
same,counts (aerobic total count),"Example 9, cooked chicken, 0.2 g/kg",below 4.0 log cfu/g
same,"aerobic total count, mean","Example 14, cooked chicken, LAE 0.2 g/kg, day 0, mean of triplicate",2.0 log cfu/g
same,"aerobic total count, mean","Example 14, cooked chicken, LAE 0.2 g/kg, day 7, mean of triplicate",2.0 log cfu/g
same,aerobic total count,"Example 14, cooked chicken, LAE 0.2 g/kg, day 7, samples 1-3",2.0 log cfu/g
same,"aerobic total count, mean","Example 14, cooked chicken, LAE 0.2 g/kg, day 14, mean of triplicate",2.3 log cfu/g
same,aerobic total count,"Example 14, cooked chicken, LAE 0.2 g/kg, day 14, samples 1-3, monohydrochloride",2.2 log cfu/g and 2.6 log cfu/g
same,"aerobic total count, mean","Example 14, cooked chicken, LAE 0.2 g/kg, day 21, mean of triplicate",2.9 log cfu/g
same,aerobic total count,"Example 14, cooked chicken, LAE 0.2 g/kg, day 21, samples 1-3, monohydrochloride",3.0 log cfu/g and 2.8 log cfu/g
same,"aerobic total count, mean","Example 14, cooked chicken, LAE 0.2 g/kg, day 28, mean of triplicate",3.4 log cfu/g
same,aerobic total count,"Example 14, cooked chicken, LAE 0.2 g/kg, day 28, samples 1-3",3.4 log cfu/g
same,aerobic total count,"Example 14, cooked chicken, LAE 0.2 g/kg, day 28, samples 1-3, monohydrochloride",3.2 log cfu/g and 3.5 log cfu/g
same,"aerobic total count, mean","Example 14, cooked chicken, LAE 0.2 g/kg, day 35, mean of triplicate",3.8 log cfu/g
same,aerobic total count,"Example 14, cooked chicken, LAE 0.2 g/kg, day 35, samples 1-3, monohydrochloride",3.6 log cfu/g and 3.8 log cfu/g and 3.9 log cfu/g
same,"aerobic total count, mean","Example 14, cooked chicken, LAE 0.2 g/kg, day 42, mean of triplicate",4.0 log cfu/g
same,aerobic total count,"Example 14, cooked chicken, LAE 0.2 g/kg, day 42, samples 1-3, monohydrochloride",4.0 log cfu/g and 4.1 log cfu/g
same,"aerobic total count, mean","Example 14, cooked chicken, LAE 0.2 g/kg, day 49, mean of triplicate",5.1 log cfu/g
same,aerobic total count,"Example 14, cooked chicken, LAE 0.2 g/kg, day 49, samples 1-3, monohydrochloride",5.3 log cfu/g and 4.9 log cfu/g and 5.0 log cfu/g
same,"aerobic total count, mean","Example 14, cooked chicken, LAE 0.2 g/kg, day 56 (8 weeks), mean of triplicate",5.6 log cfu/g
same,aerobic total count,"Example 14, cooked chicken, LAE 0.2 g/kg, day 56, samples 1-3, monohydrochloride",5.2 log cfu/g
same,counts (aerobic total count),"Example 14, cooked chicken, LAE 0.2 g/kg",below 4.0 log cfu/g
same,"aerobic total count, mean","Example 16, cooked chicken, 0.20 g of LAE/kg, day 0, mean of triplicate",2.0 log cfu/g
same,"aerobic total count, mean","Example 16, cooked chicken, 0.20 g of LAE/kg, day 7, mean of triplicate",2.0 log cfu/g
same,"aerobic total count, mean","Example 16, cooked chicken, 0.20 g of LAE/kg, day 14, mean of triplicate",2.2 log cfu/g
same,"aerobic total count, mean","Example 16, cooked chicken, 0.20 g of LAE/kg, day 21, mean of triplicate",2.8 log cfu/g
same,"aerobic total count, mean","Example 16, cooked chicken, 0.20 g of LAE/kg, day 28, mean of triplicate",3.2 log cfu/g
